Laboratory results published in patent publication US20230322767A1, “ARYL SUBSTITUTED PYRROLO-PYRIDINONES AND THERAPEUTIC USES THEREOF” (Bayer Aktiengesellschaft, priority 2020, published 2023).

Tests used:
CSNK1D = CSNK1D (Homo sapiens (Human), UniProt P48730); assay: CSNK1D Assay (ADP-Glo, 1 μM ATP); assay type: biochemical; conditions: median, read-out: CSNK1D IC50 [mol/l] (median)
Method in brief: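 Enzyme preincubated with compound 15 min at 22° C in 50 mM HEPES pH 7.5 buffer with 10 mM MgCl2, 1 mM DTT; kinase reaction run at 1 μM ATP with biotinylated peptide substrate. ADP formed was detected by ADP-Glo luminescence as the measure of activity.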

CSNK1A1 = CSNK1A1 (Homo sapiens (Human), UniProt P48729); assay: CSNK1A1 Assay 2 (ADP-Glo, 1 μM ATP); assay type: biochemical; conditions: median, read-out: CSNK1A1 Assay 2 IC50 [mol/l] (median)
CSNK1A1, sequence (P48729 whole entry): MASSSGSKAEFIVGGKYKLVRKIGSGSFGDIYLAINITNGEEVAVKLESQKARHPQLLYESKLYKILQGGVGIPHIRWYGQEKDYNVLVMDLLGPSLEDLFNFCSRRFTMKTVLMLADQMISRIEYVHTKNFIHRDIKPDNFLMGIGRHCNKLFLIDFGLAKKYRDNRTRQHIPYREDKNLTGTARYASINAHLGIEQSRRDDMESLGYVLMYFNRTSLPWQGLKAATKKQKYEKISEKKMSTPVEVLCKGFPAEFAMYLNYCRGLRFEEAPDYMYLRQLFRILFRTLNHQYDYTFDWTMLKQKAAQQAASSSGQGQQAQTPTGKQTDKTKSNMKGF
Method in brief: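 Enzyme (~0.0375 ng/μL) preincubated 15 min at 22° C with compound in HEPES pH 7.5 buffer, then reacted with 1 μM ATP and biotin-Ahx-KRRRAL-pS-VASLPGL peptide. ADP product measured by ADP-Glo luminescence after 1 h ATP depletion and 1 h detection at 22° C.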

CSNK1D, sequence (P48730 whole entry): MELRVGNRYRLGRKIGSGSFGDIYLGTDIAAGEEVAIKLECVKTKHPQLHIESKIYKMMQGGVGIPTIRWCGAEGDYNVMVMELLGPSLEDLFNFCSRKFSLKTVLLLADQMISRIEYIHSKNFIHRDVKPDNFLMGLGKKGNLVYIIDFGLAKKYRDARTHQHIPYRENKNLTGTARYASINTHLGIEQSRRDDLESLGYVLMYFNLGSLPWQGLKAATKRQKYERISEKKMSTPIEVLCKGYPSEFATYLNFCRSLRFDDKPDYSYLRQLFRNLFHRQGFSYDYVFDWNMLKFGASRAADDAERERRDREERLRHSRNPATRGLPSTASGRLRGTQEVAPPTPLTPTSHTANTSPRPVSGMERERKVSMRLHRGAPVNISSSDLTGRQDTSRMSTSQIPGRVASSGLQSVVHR

Row | SMILES | IC50 (CSNK1D) | IC50 (CSNK1A1)
1 | CC1CN(C)C(=O)c2c1[nH]c(-c1ccnc(NC(=O)C(CC(F)F)c3ccc(F)cc3)c1)c2-c1ccc(F)cc1 (stereo not drawn) [Example 33, 4,4-difluoro-2-(4-fluorophenyl)-N-{4-[3-(4-fluorophenyl)-5,7-dimethyl-4-oxo-4,5,6,7-tetrahydro-1H-pyrrolo[3,2-c]pyridin-2-yl]pyridin-2-yl}butanamide] | 4.3 nM | 4.3 nM
2 | CC1CN(C)C(=O)c2c1[nH]c(-c1ccnc(NC(=O)C(C)c3ccc(F)cc3)c1)c2-c1ccccc1 (stereo not drawn) [Example 37, N-{4-[5,7-dimethyl-4-oxo-3-phenyl-4,5,6,7-tetrahydro-1H-pyrrolo[3,2-c]pyridin-2-yl]pyridin-2-yl}-2-(4-fluorophenyl)propanamide] | 4.1 nM | 3.1 nM
3 | CC1CN(C)C(=O)c2c1[nH]c(-c1ccnc(NC(=O)C(CC(F)F)c3ccc(F)cc3)c1)c2-c1ccccc1 (stereo not drawn) [Example 39, N-{4-[5,7-dimethyl-4-oxo-3-phenyl-4,5,6,7-tetrahydro-1H-pyrrolo[3,2-c]pyridin-2-yl]pyridin-2-yl}-4,4-difluoro-2-(4-fluorophenyl)butanamide] | 3.7 nM | 3 nM
4 | CC1c2[nH]c(-c3ccnc(NC(=O)C(CC(F)F)c4ccc(F)cc4)c3)c(-c3ccccc3)c2C(=O)N(C)C1C (stereo not drawn) [Example 41, 4,4-difluoro-2-(4-fluorophenyl)-N-{4-[5,6,7-trimethyl-4-oxo-3-phenyl-4,5,6,7-tetrahydro-1H-pyrrolo[3,2-c]pyridin-2-yl]pyridin-2-yl}butanamide] | 6.1 nM | 5.7 nM
5 | CC1(C)CNC(=O)c2c1[nH]c(-c1ccnc(NC(=O)Cc3ccc(F)cc3)c1)c2-c1ccccc1 [Example 42, N-[4-(7,7-dimethyl-4-oxo-3-phenyl-4,5,6,7-tetrahydro-1H-pyrrolo[3,2-c]pyridin-2-yl)pyridin-2-yl]-2-(4-fluorophenyl)acetamide] | 2.1 nM | 1.2 nM
6 | Cn1cc(CC2CC2)c2[nH]c(-c3ccnc(NC(=O)Cc4ccc(F)cc4)c3)c(-c3ccccc3)c2c1=O [Example 56, N-{4-[7-(cyclopropylmethyl)-5-methyl-4-oxo-3-phenyl-4,5-dihydro-1H-pyrrolo[3,2-c]pyridin-2-yl]pyridin-2-yl}-2-(4-fluorophenyl)acetamide] | 4.8 nM | 4.4 nM
7 | CC(C(=O)Nc1cc(-c2[nH]c3c(c2-c2ccccc2)C(=O)N(C)CC3CC2CC2)ccn1)c1ccc(F)cc1 (stereo not drawn) [Example 57, N-{4-[7-(cyclopropylmethyl)-5-methyl-4-oxo-3-phenyl-4,5,6,7-tetrahydro-1H-pyrrolo[3,2-c]pyridin-2-yl]pyridin-2-yl}-2-(4-fluorophenyl)propanamide] | 2.9 nM | 4.5 nM
8 | CN1CC(CC2CC2)c2[nH]c(-c3ccnc(NC(=O)C(CC(F)F)c4ccc(F)cc4)c3)c(-c3ccccc3)c2C1=O (stereo not drawn) [Example 59, N-{4-[7-(cyclopropylmethyl)-5-methyl-4-oxo-3-phenyl-4,5,6,7-tetrahydro-1H-pyrrolo[3,2-c]pyridin-2-yl]pyridin-2-yl}-4,4-difluoro-2-(4-fluorophenyl)butanamide] | 3.6 nM | 4.9 nM
9 | CC(C(=O)Nc1cc(-c2[nH]c3c(c2-c2ccc(F)cc2)C(=O)N(C)CC3CC2CC2)ccn1)c1ccc(F)cc1 (stereo not drawn) [Example 62, N-{4-[7-(cyclopropylmethyl)-3-(4-fluorophenyl)-5-methyl-4-oxo-4,5,6,7-tetrahydro-1H-pyrrolo[3,2-c]pyridin-2-yl]pyridin-2-yl}-2-(4-fluorophenyl)propanamide] | 4 nM | 7.6 nM
